# From patent publication US20200138827A1, “SMALL MOLECULE MODULATORS OF HUMAN STING” (Curadev Pharma Limited, priority 2017, published 2020)
# Molecular target: T1, WT/R232 STING protein (Homo sapiens, UniProt Q86WV6, H232R)
# T1 construct: host or cells: HEK293T
# Assay: Luciferase reporter assay in HEK293T-hSTING-Luciferase cells, WT/R232
# Assay type: cell-based
# Details: 20 hr stimulation, read-out: R232 Activity (EC50 range)
# Excerpt: • a) Stable STING expressing cells—Stable HEK293T STING-expressing cell lines were generated using plasmids purchased from Invivogen, Calif., USA, that contain STING cDNA cloned into the pUNO-1 vector under hEF1-HTLV promoter and containing the Blasticidin selection cassette. The plasmids hSTING(R232), hSTING(H232), hSTING(HAQ) were directly procured from Invivogen while hSTING (AQ) and hSTING (Q) were derived from hSTING(HAQ) and hSTING (R232) plasmids respectively by using a PCR based site directed mutagenesis method. These vectors were individually transfected into HEK293T cells using Lipofectamine (Invitrogen) and transfected cells were selected under Blasticidin selection. These transfected cells were further subjected to clonal selection using the limiting dilution method to obtain clonally pure populations of HEK cells transfected with each of the above mentioned human STING variants. Only those clones were selected in which ligand independent activation of STING was minimal. • b) Stable Luciferase reporter gene expressing cells—Stable HEK293T Luciferase reporter gene expressing cell lines were generated using pCDNA4 plasmids under an IRF-inducible promoter. This promoter is comprised of five tandem interferon-stimulated response elements (ISRE) fused to an ISG54 minimal promoter. This vector was transfected into HEK293T cells using Lipofectamine (Invitrogen) and transfected cells were selected under Zeocin selection. These transfected cells were further subjected to clonal selection using the limiting dilution method to obtain clonally pure populations of HEK cells transfected the Luciferase reporter construct. Only those clones were selected in which ligand independent induction of luciferase was minimal.
# 5×10^5 clonally selected HEK293T-hSTING-Luciferase cells were seeded in 384-well plates in growth medium and stimulated with novel compounds. After 20 hr of stimulation supernatant were removed and secretary reporter gene activity were measured using the Quanti-Luc detection system (Invivogen) on a Spectramax i3X luminometer.
# All compounds were first tested in a primary screen using WT/R232 STING protein to obtain a ‘fold-induction’ over baseline levels of protein activity.
# T1 sequence (Q86WV6 whole entry H232R): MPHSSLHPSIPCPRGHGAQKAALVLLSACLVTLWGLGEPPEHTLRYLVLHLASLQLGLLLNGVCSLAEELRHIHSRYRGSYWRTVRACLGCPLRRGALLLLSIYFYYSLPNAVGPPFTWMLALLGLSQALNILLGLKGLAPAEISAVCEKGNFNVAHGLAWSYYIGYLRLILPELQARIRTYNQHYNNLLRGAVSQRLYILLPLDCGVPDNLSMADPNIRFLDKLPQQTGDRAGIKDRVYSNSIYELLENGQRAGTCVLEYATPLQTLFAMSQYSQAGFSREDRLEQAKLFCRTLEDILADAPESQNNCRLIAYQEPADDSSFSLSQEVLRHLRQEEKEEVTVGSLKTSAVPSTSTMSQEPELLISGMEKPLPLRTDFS
row,Compound,EC50 [µM]
1,"O=C(NCc1ccco1)c1ccc2c(c1)N(Cc1ccccc1Cl)C(=O)CS2 [Example 1, 4-(2-chlorobenzyl)-N-(furan-2-ylmethyl)-3-oxo-3,4-dihydro-2H-benzo[b-1,4]thiazine-6-carboxamide]",> 10
2,"O=C(CN1C(=O)CSc2ccc(C(=O)NCc3ccco3)cc21)c1ccccc1 [Example 2, N-(furan-2-ylmethyl)-3-oxo-4-(2-oxo-2-phenylethyl)-3,4-dihydro-2H-benzo[b][1,4] thiazine-6-carboxamide]",> 10
3,"O=C(NCc1ccco1)c1ccc2c(c1)N(CC(=O)N1CCc3ccccc31)C(=O)CS2 [Example 3, N-(furan-2-ylmethyl)-4-(2-(indolin-1-yl)-2-oxoethyl)-3-oxo-3,4-dihyrdo-2H-benzo[b-1,4]thiazine-6-carboxamide]",> 10
4,"O=C(CN1C(=O)CSc2ccc(C(=O)NCc3ccco3)cc21)Nc1ccncc1 [Example 4, N-(furan-2-ylmethyl)-3-oxo-4-(2-oxo-2-(pyridin-4-ylamino)ethyl)-3,4-dihydro-2H-benzo[b-1,4]-thiazine-6-carboxamide]",> 10
5,"O=C(CN1C(=O)CSc2ccc(C(=O)NCc3ccco3)cc21)Nc1ccccc1 [Example 5, N-(furan-2-ylmethyl)-3-oxo-4-(2-oxo-2-(phenylamino)ethyl)-3,4-dihydro-2H-benzo[b-1,4]thiazine-6-carboxamide]",> 10
6,"O=C(NCc1ccco1)c1ccc2c(c1)N(Cc1nc3ccccc3s1)C(=O)CS2 [Example 6, 4-(benzo[d]thiazol-2-ylmethyl)-N-(furan-2-ylmethyl)-3-oxo-3,4-dihydro-2H-benzo[b-1,4]thiazine-6-carboxamide]",> 10
7,O=C(NCc1ccco1)c1ccc2c(c1)N(Cc1nc3ccccc3o1)C(=O)CS2 [Example 7],> 10
8,"O=C(NCc1ccco1)c1ccc2c(c1)N(CCc1ccccc1)C(=O)CS2 [Example 8, N-(furan-2-ylmethyl)-3-oxo-4-phenethyl-3,4-dihydro-2H-benzo[b-1,4]thiazine-6-carboxamide]",> 10
9,"Nc1ncc(NC(=O)CN2C(=O)CSc3ccc(C(=O)NCc4ccco4)cc32)cn1 [Example 9, 4-(2-((2-amino-pyrimidin-5-yl)amino)-2-oxoethyl)-N-(furan-2-ylmethyl)-3-oxo-3,4-dihydro-2H-benzo[b-1,4]thiazine-6-carboxamide]",> 10
10,"Cn1cccc1CNC(=O)c1ccc2c(c1)N(Cc1ccccc1)C(=O)CS2 [Example 10, 4-benzyl-N-((1-methyl-1H-pyrrol-2-yl)methyl)-3-oxo-3,4-dihydro-2H-benzo[b-1,4]thiazine-6-carboxamide]",> 10
11,"O=C(NCc1ccco1)c1ccc2c(c1)N(Cc1cccc(Cl)c1Cl)C(=O)CS2 [Example 11, 4-(2,3-dichloro-benzyl)-N-(furan-2-ylmethyl)-3-oxo-3,4-dihydro-2H-benzo[b-1,4]thiazine-6-carboxamide]",1 to 10
12,"Cc1cccc(CN2C(=O)CSc3ccc(C(=O)NCc4ccco4)cc32)c1C [Example 12, 4-(2,3-dimethyl-benzyl)-N-(furan-2-ylmethyl)-3-oxo-3,4-dihydro-2H-benzo[b-1,4]thiazine-6-caroxamide]",1 to 10
13,"Cc1cccc(C)c1CN1C(=O)CSc2ccc(C(=O)NCc3ccco3)cc21 [Example 13, 4-(2,6-dimethyl-benzyl)-N-(furan-2-ylmethyl)-3-oxo-3,4-dihydro-2H-benzo[b-1,4]thiazine-6-carboxamide]",1 to 10
14,"O=C(NCc1ccco1)c1ccc2c(c1)N(Cc1cccc3ccccc13)C(=O)CS2 [Example 14, N-(furan-2-ylmethyl)-4-(naphthalen-1-ylmethyl)-3-oxo-3,4-dihydro-2H-benzo[b-1,4]thiazine-6-carboxamide]",1 to 10
15,"O=C(NCc1ccco1)c1ccc2c(c1)N(CC1CCCCC1)C(=O)CS2 [Example 15, 4-(cyclohexyl-methyl)-N-(furan-2-ylmethyl)-3-oxo-3,4-dihydro-2H-benzo[b-1,4]thiazine-6-carboxamide]",> 10
16,"O=C(NCC1CCCCC1)c1ccc2c(c1)N(Cc1ccccc1F)C(=O)CS2 [Example 16, N-(cyclo-hexylmethyl)-4-(2-fluoro-benzyl)-3-oxo-3,4-dihydro-2H-benzo[b-1,4]thiazine-6-carboxamide]",1 to 10
17,"O=C(NCc1ccco1)c1ccc2c(c1)N(CC(O)c1ccccc1)C(=O)CS2 (centres unmarked) [Example 17, N-(furan-2-ylmethyl)-4-(2-hydroxy-2-phenylethyl)-3-oxo-3,4-dihydro-2H-benzo[b-1,4]thiazine-6-carboxamide]",> 10

# Further lines, results first:
row,EC50 [µM],Compound
1,> 10,"C[C@H](NC(=O)c1ccc2c(c1)N(Cc1ccccc1F)C(=O)CS2)C1CCCCC1 [Example 18, (S)-N-(1-cyclohexyl-ethyl)-4-(2-fluorobenzyl)-3-oxo-3,4-dihydro-2H-benzo[b-1,4]thiazine-6-carboxamide]"
2,> 10,"C[C@@H](NC(=O)c1ccc2c(c1)N(Cc1ccccc1F)C(=O)CS2)C1CCCCC1 [Example 19, (R)-N-(1-cyclohexyl-ethyl)-4-(2-flurobenzyl)-3-oxo-3,4-dihydro-2H-benzo[b-1,4]thiazine-6-carboxamide]"
3,> 10,"O=C(NCC1CC1)c1ccc2c(c1)N(Cc1ccccc1F)C(=O)CS2 [Example 20, N-(cyclopropyl-methyl)-4-(2-fluorobenzyl)-3-oxo-3,4-dihydro-2H-benzo[b-1,4]thiazine-6-carboxamide]"
4,1 to 10,"O=C(NCc1c(F)cccc1Cl)c1ccc2c(c1)N(Cc1c(F)cccc1Cl)C(=O)CS2 [Example 21, N,4-bis(2-chloro-6-fluorobenzyl)-3-oxo-3,4-dihydro-2H-benzo[b-1,4]thiazine-carboxamide]"
5,> 10,"CC1(C)C2CC(CNC(=O)c3ccc4c(c3)N(Cc3ccccc3F)C(=O)CS4)CC1C2 (centres unmarked) [Example 22, N-((6,6-dimethyl-bicyclo[3.1.1]heptan-3-yl)methyl)-4-(2-fluorobenzyl)-3-oxo-3,4-dihydro-2H-benzo[b-1,4]thiazine 6-carboxamide]"
6,> 10,"CC(NC(=O)c1ccc2c(c1)N(Cc1ccccc1F)C(=O)CS2)C12C[C@H]3C[C@@H](C1)C[C@@H](C2)C3 (some centres unmarked) [Example 23, N-(1-((3r,5r,7r)-adamantan-1-yl)ethyl)-4-(2-fluorobenzyl)-3-oxo-3,4-dihydro-2H-benzo[b-1,4]thiazine-6-carboxamide]"
7,> 10,"O=C(NCC12C[C@H]3C[C@@H](C1)C[C@@H](C2)C3)c1ccc2c(c1)N(Cc1ccccc1F)C(=O)CS2 [Example 24, N-((3r,5r,7r)-adamantan-1-ylmethyl)-4-(2-fluorobenzyl)-3-oxo-3,4-dihydro-2H-benzo[b-1,4]thiazine-6-carboxamide]"
8,> 10,"Cc1cccc(CN2C(=O)CSc3ccc(C(=O)NCC4CCCCC4)cc32)c1C [Example 25, N-(cyclohexyl-methyl)-4-(2,3-dimethyl-benzyl)-3-oxo-3,4-dihydro-2H-benzo[b-1,4]thiazine-6-carboxamide]"
9,> 10,"O=C(NCc1cccc2ccccc12)c1ccc2c(c1)N(Cc1ccccc1F)C(=O)CS2 [Example 26, 4-(2-fluorobenzyl)-N-(naphthalen-1-ylmethyl)-3-oxo-3,4-dihydro-2H-benzo[b-1,4]thiazine-6-carboxamide]"
10,> 10,"O=C(NCc1ccco1)c1ccc2c(c1)N(Cc1cccnc1)C(=O)CS2 [Example 27, N-(furan-2-ylmethyl)-3-oxo-4-(pyridin-3-ylmethyl)-3,4-dihydro-2H-benzo[b-1,4]thiazine-6-carboxamide]"
11,> 10,"O=C(NCc1ccco1)c1ccc2c(c1)N(Cc1ccncc1)C(=O)CS2 [Example 28, N-(furan-2-ylmethyl)-3-oxo-4-(pyridin-4-ylmethyl)-3,4-dihydro-2H-benzo[b-1,4]thiazine-6-carboxamide]"
12,> 10,"CC(c1ccccc1)N1C(=O)CSc2ccc(C(=O)NCc3ccco3)cc21 (centres unmarked) [Example 29, N-(furan-2-ylmethyl)-3-oxo-4-(1-phenylethyl)-3,4-dihydro-2H-benzo[b-1,4]thiazine-6-carboxamide]"
13,> 10,"O=C(NCc1ccco1)c1ccc2c(c1)N(Cc1ccccc1C(F)(F)F)C(=O)CS2 [Example 30, N-(furan-2-ylmethyl)-3-oxo-4-(2-(trifluoro-methyl)benzyl)-3,4-dihydro-2H-benzo[b-1,4]thiazine-6-carboxamide]"
14,1 to 10,"O=C(NCc1ccc2ccccc2c1)c1ccc2c(c1)N(Cc1c(F)cccc1Cl)C(=O)CS2 [Example 32, 4-(2-chloro-6-fluorobenzyl)-N-(naphthalen-2-ylmethyl)-3-oxo-3,4-dihydro-2H-benzo[b-1,4]thiazine 6-carboxamide]"
15,> 10,"CN(Cc1ccco1)C(=O)c1ccc2c(c1)N(Cc1ccccc1)C(=O)CS2 [Example 33, 4-benzyl-N-(furan-2-ylmethyl)-N-methyl-3-oxo-3,4-dihydro-2H-benzo[b][1,4] thiazine-6-carboxamide]"
